Consider 57 compounds from ChEMBL document CHEMBL1201862, “PubChem BioAssay data set” (2004).

Values joined by “and” are separate entries in the source; they are usually repeats but may differ in a detail not shown here. Equal values may be shown once.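 Step 1: Grow cells in 96-well plates. Step 2: Expose to compound for 48 hours at 5 concentrations. Step 3: Interpolate endpoints linearly; if unreached, use highest concentration. Here, GI50 denotes the concentration required for 50% inhibition of growth.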 Active and inactive are the calls of the source. Cut-off read from the data, not from the text of the source: active = GI50 up to about 1.1 µM and inactive = higher. Residues, ends and D or L forms follow the SMILES beside them.

Among the test systems are BT-549; DMS-114; LXFL 529; KM-20L2; M19-MEL; HOP-18; DLD-1; XF498.
Holding throughout (assay): growth of human tumour cells (NCI), 48 h

For the compound `CCCCC(CCCC)=NNC(=S)SC`, the GI50 in the test on BT-549 was 42 µM (inactive).
On the same count and under the same terms, in the case of `COc1ccc2c(Cl)cc(NC(=S)Nc3ccccc3)nc2c1` it was 39 µM (inactive).
Take `CC(=O)NNc1nc(C)c(C(=O)NNC(=O)C(=O)Nc2c(Cl)cc([N+](=O)[O-])cc2Cl)s1`: the GI50 is 32.6 µM (inactive) in the test on DMS-114, 33.7 µM (inactive) in the test on LXFL 529, 31.9 µM (inactive) in the test on KM-20L2 and 46.6 µM (inactive) in the test with M19-MEL.
For the compound `COc1cc(/C=C2\C(=O)N(c3ccc(NC(C)=O)cc3)C(c3ccccc3)S2(=O)=O)cc(OC)c1OC` (stereo not drawn), the GI50 in the test on BT-549 is > 100 µM (inactive).
Regarding `Oc1ccccc1/C=N/c1nc2cc3sc(/N=C/c4ccccc4O)nc3cc2s1`, the GI50 in the test on BT-549 is > 61.8 µM (inactive).
On the same count and under the same terms, in the case of `CN1CCN(c2ccc([N+](=O)[O-])c3no[n+]([O-])c23)CC1` it was 1.09 µM (active).
In the case of `CC(=O)OC(C)C1C2=C(C(=O)CC1(C)O)C(=O)c1c(ccc(-c3ccc4c(c3O)C(=O)C3=C(C4=O)C(C(C)OC(C)=O)C(C)(O)CC3=O)c1O)C2=O` (stereo not drawn), the GI50 in the test with DMS-114 was 0.286 µM (active); in the test with HOP-18, 0.457 µM (active); in the test on BT-549, 1.28 µM (inactive); with LXFL 529 it was 0.428 µM (active); in the test on KM-20L2, 2.04 µM (inactive); in the test with DLD-1, 1.11 µM (active). In the test on M19-MEL, the GI50 is 1.36 µM (inactive).
Regarding `N=C(N)N/N=C/c1c(-c2cc([N+](=O)[O-])c(Cl)cc2Cl)nc2sccn12`, the GI50 with BT-549 was 1.4 µM (inactive) and 1.46 µM (inactive).
As to `COC(=O)[C@@H]1CCCCC[C@H]2C(CO)=C(C)C(=O)C12` (stereo partly drawn), the GI50 with DMS-114, in the test on XF498, in the test on HOP-18, with LXFL 529, in the test with KM-20L2 and in the test on DLD-1 was > 100 µM (inactive) each time. Moreover, in the test with M19-MEL, the GI50 is > 100 µM (inactive).
Consider `O=C(CC1S/C(=N\c2ccccc2Cl)NC1=O)Nc1ccc(Cl)cc1` (stereo not drawn), for which the GI50 in the test with DMS-114, with LXFL 529, with KM-20L2, in the test with DLD-1 and with M19-MEL was > 100 µM (inactive) throughout.
Consider `COc1ccc(C2c3cc4c(cc3OC(N3CCOCC3)C2C)OCO4)c(OC)c1` (stereo not drawn), for which the GI50 in the test on BT-549 was 3.23 µM (inactive).
Take `CC(=O)c1ccc2c(c1)CC1(C2)Cc2ccc3c(c2C1=O)CCC3` (stereo not drawn): the GI50 with BT-549 is 27.9 µM (inactive).
Still for that read-out and setting: then `CC(NC(=O)c1ccccc1)(C(=O)O)C(=O)O`, with > 100 µM (inactive); and `O=C(/C=C/c1ccc(O)c(O)c1)NC(COC(=O)/C=C/c1ccc(O)c(O)c1)C(=O)O` (stereo not drawn), with > 100 µM (inactive); and `CC1(C)CCCCCC(C)(CCCCCCCCCCCO)C1=O` (stereo not drawn), with 18.9 µM (inactive).
Still for that read-out and setting: then `O=c1c2ccccc2nc(-c2ccccc2)n1O`, with > 100 µM (inactive); and `C=C(Cl)C(Cl)(CBr)CCCC(C)(C)Cl` (stereo not drawn), with 52 µM (inactive).
For `O=C1C2=Cc3ccccc3OC2(O)Oc2cc(O)ccc21` (stereo not drawn), in the test with BT-549, the GI50 was > 100 µM (inactive).
Same read-out and setting: then `O=Cc1[nH]c(=O)[nH]c(=O)c1CCl`, with > 100 µM (inactive).
Turning to `O=C(O)Cc1cccnc1`, the GI50 in the test with BT-549 was > 100 µM (inactive).
On to `O=C1C[C@@H]2[C@@H](C=CC23CC3)N1O`, for which the GI50 with HOP-18, with LXFL 529, in the test with KM-20L2, in the test with DLD-1 and in the test with M19-MEL was > 100 µM (inactive) each time.
For `CC(=O)NC(CO)C(=O)NC(Cc1ccc(O)cc1)C(=O)NCC(N)=O` (stereo not drawn) (Ac-Ser-Tyr-Gly-NH2; configuration not given here), the GI50 in the test on BT-549 is > 100 µM (inactive).
Turning to `CC(=O)O[C@@]12CO[C@@H]1C[C@@H](O)[C@@]1(C)C(=O)[C@H](O)C3=C(C)[C@@H](OC(=O)[C@H](O)[C@@H](NC(=O)c4ccccc4)c4ccccc4)C[C@@](O)([C@@H](OC(=O)c4ccccc4)C12)C3(C)C` (stereo partly drawn), the GI50 in the test on DMS-114 was < 0.01 µM (active); in the test with BT-549, 0.0243 µM (active); with KM-20L2, 0.0134 µM (active); in the test on M19-MEL, < 0.01 µM (active).
As for `O=C(NCCCCCCNC(=O)NC1OCC(O)C(O)C1O)NC1OCC(O)C(O)C1O` (stereo not drawn), the GI50 in the test with DMS-114, with LXFL 529, in the test with DLD-1 and with M19-MEL was > 100 µM (inactive) throughout.
As to `CCn1c(-c2ccc(OC)cc2)nc2c1C(=O)c1ccccc1C2=O`, the GI50 with BT-549 is 67.6 µM (inactive).
Take `COC(=O)C1CC(=O)CCC1c1ccccc1` (stereo not drawn): the GI50 in the test on DMS-114, in the test with HOP-18, with LXFL 529, in the test with KM-20L2, with DLD-1 and in the test with M19-MEL was > 100 µM (inactive) each time.
As to `COC(=O)CCC1=NCC(C)(C)O1`, the GI50 with BT-549 was > 10 µM (inactive).
Same read-out and setting: in the case of `COc1cc(NCc2ccc3n2-c2ccccc2OC3)cc(OC)c1OC` it was 24.2 µM (inactive); in that of `Nc1ncnc2c1ncn2[C@@H]1C[C@H](NO)[C@@H](O)[C@H]1O`, > 100 µM (inactive).
Turning to `Cc1nc2c(nc1C)-c1c(c3c(n1C)C(=O)CCC3)C(=O)C2=O`, the GI50 with BT-549 was 0.0259 µM (active).
Same read-out and setting: then `CC1C(O)Oc2cc3c(cc2C1c1ccccc1O)OCO3` (stereo not drawn), with 34.9 µM (inactive); and `CC1(C)CC2C=C(C=O)C3(C=O)CC3(C)C2C1` (stereo not drawn), with 1.81 µM (inactive).
As to `C/C(=C\COc1ccc2ccc(=O)oc2c1)C1=CC(=O)C(C)(C)O1` [GEIPARVARIN], the GI50 with DMS-114 is 4.19 µM (inactive); in the test on XF498, 4.1 µM (inactive); with HOP-18 it was 66.7 µM (inactive); with BT-549, 3.69 µM (inactive); with KM-20L2 it was 3.39 µM (inactive); in the test on DLD-1, 2.26 µM (inactive). The GI50 in the test with M19-MEL is 4.61 µM (inactive).
For `COc1nc(NC2OC(COC(C)=O)C(OC(C)=O)C(OC(C)=O)C2OC(C)=O)c(/N=C/C=N/c2c(NC3OC(COC(C)=O)C(OC(C)=O)C(OC(C)=O)C3OC(C)=O)nc(OC)[nH]c2=O)c(=O)[nH]1` (stereo not drawn), the GI50 in the test with DMS-114, in the test on HOP-18, with LXFL 529, with KM-20L2, in the test on DLD-1 and in the test with M19-MEL was > 100 µM (inactive) in each case.
As for `CSc1nc(C#N)c(/N=C\N(C)C)n1C`, the GI50 in the test on BT-549 was > 100 µM (inactive).
For `CCN1C(=O)c2ccccc2C1(O)c1ccc(Cl)cc1` (stereo not drawn), in the test on BT-549, the GI50 is > 100 µM (inactive).
The same measure, in the same setting: then `CC(NC(=N)N)C(=O)O` (stereo not drawn), with > 100 µM (inactive).
For `CCCNCC(O)CNc1ccc(NCC(O)CNCCC)c2c1C(=O)c1ccccc1C2=O` (stereo not drawn), the GI50 in the test with BT-549 is 2.14 µM (inactive).
Consider `COc1ccc(/C=C2\N=C(c3ccccc3)N(Nc3nnc(NN4C(=O)/C(=C/c5ccc(OC)cc5)N=C4c4ccccc4)c4ccccc34)C2=O)cc1`, for which the GI50 is 61 µM (inactive) in the test on DMS-114; 92.3 µM (inactive) in the test on HOP-18; 44.4 µM (inactive) with LXFL 529; 53.2 µM (inactive) in the test with KM-20L2; 42.3 µM (inactive) in the test with DLD-1; 58.7 µM (inactive) in the test on M19-MEL.
`CC1(CNCc2ccccc2)CC(CCc2ccccc2)N(C(=O)c2ccc([N+](=O)[O-])cc2)C1Cc1ccc(O)cc1` (stereo not drawn): the GI50 in the test with BT-549 is 16.1 µM (inactive).
For the compound `CC(=O)O[C@@H]1C2C(=O)OC(=O)C2C2CCC[C@]23O[C@H]13` (stereo partly drawn), the GI50 with DMS-114, in the test on HOP-18, in the test with LXFL 529, in the test on KM-20L2, in the test with DLD-1 and with M19-MEL was > 100 µM (inactive) throughout.
Take `N#CCCN(CCC#N)c1ccc(C(/N=N/c2ccccc2)=N\c2ccccc2)cc1`: the GI50 in the test with BT-549 is 13 µM (inactive).
On to `Clc1cc(Cl)c2ns[s+]c2c1Cl`, for which the GI50 is > 100 µM (inactive) in the test on XF498; 78.3 µM (inactive) in the test with HOP-18; > 100 µM (inactive) with LXFL 529; > 100 µM (inactive) in the test with KM-20L2; > 100 µM (inactive) in the test on DLD-1; > 100 µM (inactive) in the test with M19-MEL.
Take `c1ccc2c(c1)nc1n2sc2nc3ccccc3n21`: the GI50 in the test on BT-549 is > 100 µM (inactive).
`S=C(c1c[nH]c2ccccc12)N1CCN(c2ccccc2)CC1`: the GI50 in the test with BT-549 was > 100 µM (inactive).
As to `ClCCC[Si]12OCCN(CCO1)CCO2`, the GI50 in the test with DMS-114, in the test on LXFL 529, with DLD-1 and with M19-MEL was > 100 µM (inactive) each time.
Turning to `CCOC(=O)c1sc(N/N=C2\NC(=O)/C(=C/c3ccc([N+](=O)[O-])cc3)S2)nc1C`, the GI50 in the test with BT-549 was 24 µM (inactive).
Same read-out and setting: in the case of `COc1ccc2[nH]c3c(C)c4ncccc4c(C)c3c2c1` it was > 10 µM (inactive); in that of `Cc1nc2ccccc2c(=O)n1NC(=O)Cc1ccccc1`, > 100 µM (inactive); in that of `N#CC1=C(N)N(c2ccccc2)C(c2ccccc2)C1(C#N)C#N` (stereo not drawn), 16.7 µM (inactive).
As for `CC(C)c1cc(C(C)C)c(S(=O)(=O)NN)c(C(C)C)c1`, the GI50 in the test on DMS-114, in the test with HOP-18, with KM-20L2, in the test on DLD-1 and in the test with M19-MEL was > 100 µM (inactive) throughout.
`C=C(Cl)/C(=C\Cl)CCC(Cl)C(C)C` (stereo not drawn): the GI50 in the test on BT-549 was > 100 µM (inactive).
The same measure, in the same setting: then `CC(=O)OCC1=C(C)C(OC(=O)C(OC(C)=O)[C@@H](NC(=O)c2ccccc2)c2ccccc2)CCC1(C)C` (stereo partly drawn), with > 100 µM (inactive).
Take `N#Cc1ccc(Sc2nc3ccccc3[nH]2)cc1`: the GI50 in the test with DMS-114 was 65 µM (inactive); with HOP-18, > 100 µM (inactive); in the test with LXFL 529, 46.7 µM (inactive); in the test with DLD-1, > 100 µM (inactive); in the test on M19-MEL, 86.1 µM (inactive).
As to `COCCOCCOC1=CC(=O)c2c(O)ccc(O)c2C1=O`, the GI50 in the test on BT-549 was 1.79 µM (inactive).
On the same count and under the same terms, in the case of `CC(C)OC(=O)[C@@H]1OC(C)(C)O[C@H]1C(=O)OC(C)C` it was > 100 µM (inactive).
For `Cn1cnc(CCc2ccccc2)n1`, the GI50 with DMS-114, in the test on HOP-18, in the test with LXFL 529, in the test on KM-20L2, with DLD-1 and with M19-MEL was > 100 µM (inactive) each time.
